Type in all cases: cell-based
One assay has as its system IL12p40. Description: Cytokine profiling assay in human PBMCs, IL12p40 detection (MSD). Conditions: PBMC; cryopreserved human PBMCs, 24 hours at 37° C., half-maximal effect on normalized percent activation. An excerpt: (§1) Cryopreserved human PBMCs isolated from healthy donors were purchased from StemCell Technologies (Vancouver, Canada). Cell culture medium used was RPMI with L-Glutamine (Mediatech, Manassas, Va.) supplemented with 10% fetal bovine serum (Hyclone, GE Healthcare, Logan, Utah) and Penicillin-Streptomycin (Mediatech). Human TNFα, IL12p40, and IFNα2a 384-well Assay capture plates, standards, buffers and processing reagents were obtained from MesoScale Discovery Technologies (MSD; Rockville, Md.).
(§2) Cryopreserved human PBMCs (1×10e8 cells/ml) were thawed at 37° C. and resuspended in 25 mL warm cell culture medium. The cells were pelleted at 200×g (Beckman Avanti J-E) for 5 min and resuspended in 20 mL of fresh culture media. Cells were counted using a Cellometer (Nexcelcom Bioscience), adjusted to 2×10e6 cells, and incubated for 2 hours in an incubator set at 37° C., 5% CO2 to recover from cryopreservation. Compounds were serially diluted in DMSO at half-log steps to generate a 10-point dose range. Using a Bravo pipette equipped with a 384 well head (Agilent), 0.4 μL of compound was transferred to each well of a 384 well black, clear bottom plate (Greiner Bio-One, Germany) containing 30 μL of cell culture medium. Recovered PBMCs were then dispensed into the assay plate at 50 μL per well (100 k cells/well) using the MicroFlow multichannel dispenser (Biotek). Final DMSO concentration was 0.5%. DMSO was used as the negative control. The plates were incubated for 24 hours at 37° C. PBMCs in the assay plate were pelleted by centrifugation (Beckman Avanti J-E) at 200×g for 5 min.
(§3) Using a Biomek FX 384 well pipetting station (Beckman), conditioned culture medium (CCM) from the assay plate was transferred to MSD capture plates customized for each cytokine. For IFNα and IL12-p40 detection, […], of CCM were added directly to each capture plate, respectively. For TNFα detection, CCM was diluted 1:9 in fresh culture medium, and […], of diluted CCM was used. Serially diluted calibration standards for each cytokine were used to generate standard curves and establish assay linearity. The plates were sealed and incubated overnight at 4° C. in a plate shaker (Titer Plate) set at 200 rpm. On the following day, antibodies specific for each cytokine were diluted 1:50 in MSD Diluent 100 antibody dilution buffer. Diluted antibodies were added to corresponding capture plates at 10 μL/well, and incubated at RT for 1-2 hrs in the shaker. The plates were washed with PBST buffer (3×, 60 μl/well) using a Biotek Multiflow plate washer. MSD Read Buffer diluted to 2× in deionized water and 35 μL/well was added via Biomek FX instrument. The plates were read immediately in a MSD6000 reader. Data were normalized to positive and negative controls in each assay plate. AC50 values represent compound concentrations at half-maximal effect based on normalized percent activation and calculated by non-linear regression using Pipeline Pilot software (Accelrys, San Diego, Calif.).

The next assay has as its system TNFα. Description: Cytokine profiling assay in human PBMCs, TNFα detection (MSD). Conditions: PBMC; cryopreserved human PBMCs, 24 hours at 37° C., half-maximal effect on normalized percent activation; read-out: TNFa AC50.
From the text: as §1, §2, §3

The next assay relates to IFNα. Description: Cytokine profiling assay in human PBMCs, IFNα detection (MSD). Particulars: PBMC; cryopreserved human PBMCs, 24 hours at 37° C., half-maximal effect on normalized percent activation; read-out: IFNa AC50.
From the text: as §1, §2, §3

Consider `CCCC[C@](C)(CNC(C)=O)Nc1nc(N)nc2ccccc12` [Example 1, (R)—N-(2-((2-aminoquinazolin-4-yl)amino)-2-methylhexyl)acetamide], for which the AC50 is 52.2 nM with IL12p40, 63 nM with TNFα and above 50000 nM in the assay with IFNα.

Regarding `CCCC[C@](C)(CNC(C)=O)Nc1nc(N)nc2cc(F)ccc12` [Example 2, (R)—N-(2-((2-amino-7-fluoroquinazolin-4-yl)amino)-2-methylhexyl)acetamide], the AC50 in the assay on IL12p40 was 8.83 nM; in the assay with TNFα, 40.9 nM; in the assay on IFNα, above 50000 nM.

As for `CCCC[C@](C)(CNC(C)=O)Nc1nc(N)nc2cc(F)c(F)cc12` [Example 3, (R)—N-(2-((2-amino-6,7-difluoroquinazolin-4-yl)amino)-2-methylhexyl)acetamide], the AC50 in the assay on IL12p40 is 703 nM; in the assay on TNFα it was 812 nM; in the assay on IFNα, above 50000 nM.

`CCCC[C@](C)(CNC(C)=O)Nc1nc(N)nc2cnccc12` [Example 4, (R)—N-(2-((2-aminopyrido[3,4-d]pyrimidin-4-yl)amino)-2-methylhexyl)acetamide]: the half-maximal activity concentration (AC50) is 132 nM in the assay on IL12p40, 110 nM in the assay on TNFα and above 50000 nM in the assay with IFNα.

Take `CCCC[C@](C)(CNC(C)=O)Nc1nc(N)nc2ncccc12` [Example 5, (R)—N-(2-((2-aminopyrido[2,3-d]pyrimidin-4-yl)amino)-2-methylhexyl)acetamide]: the AC50 in the assay on IL12p40 was 364 nM; in the assay on TNFα it was 543 nM; with IFNα it was above 50000 nM.

Take `CCCC[C@](C)(CNC(C)=O)Nc1nc(N)nc2c1CCCC2` [Example 6, (R)—N-(2-((2-amino-5,6,7,8-tetrahydroquinazolin-4-yl)amino)-2-methylhexyl)acetamide]: the values for the AC50 in the assay with IL12p40, in the assay on TNFα and in the assay on IFNα were 9580 nM, 10200 nM and above 50000 nM, respectively.

As to `CCCC[C@](C)(CNC(C)=O)Nc1nc(N)nc2c1CN(C(C)=O)CC2` [Example 7, (R)—N-(2-((6-acetyl-2-amino-5,6,7,8-tetrahydropyrido[4,3-d]pyrimidin-4-yl)amino)-2-methylhexyl)acetamide], the AC50 in the assay on IL12p40 was 2320 nM; in the assay with TNFα, 2500 nM; in the assay with IFNα it was above 50000 nM.

As for `CCCC[C@](C)(CNC(C)=O)Nc1nc(N)nc2c1CCN(C(C)=O)C2` [Example 8, (R)—N-(2-((7-acetyl-2-amino-5,6,7,8-tetrahydropyrido[3,4-d]pyrimidin-4-yl)amino)-2-methylhexyl)acetamide], the AC50 in the assay with IL12p40 was 3630 nM; in the assay with TNFα, 4610 nM; in the assay with IFNα, above 50000 nM.

Consider `CCCC[C@](C)(CNC(C)=O)Nc1nc(N)nc2ccsc12` [Example 9], for which the AC50 is 855 nM with IL12p40, 1100 nM with TNFα and above 50000 nM in the assay with IFNα.

Consider `CCCC[C@H](CNC(C)=O)Nc1nc(N)nc2ccccc12` [Example 10, (R)—N-(2-((2-aminoquinazolin-4-yl)amino)hexyl)acetamide], for which the AC50 is 1320 nM in the assay with IL12p40, 1670 nM in the assay on TNFα and above 50000 nM with IFNα.

In the case of `CCCC[C@H](CNC(C)=O)Nc1nc(N)nc2cc(F)ccc12` [Example 11, (R)—N-(2-((2-amino-7-fluoroquinazolin-4-yl)amino)hexyl)acetamide], the AC50 in the assay on IL12p40 is 433 nM; with TNFα, 561 nM; in the assay with IFNα, above 50000 nM.

Turning to `CCCC[C@H](CNC(C)=O)Nc1nc(N)nc2cc(F)c(F)cc12` [Example 12, (R)—N-(2-((2-amino-6,7-difluoroquinazolin-4-yl)amino)hexyl)acetamide], the AC50 with IL12p40 is 12000 nM; with TNFα, 10200 nM; with IFNα it was above 50000 nM.

Regarding `CCCC[C@H](CNC(C)=O)Nc1nc(N)nc2ccsc12` [Example 13], the AC50 in the assay with IL12p40 is 8290 nM; with TNFα, 9520 nM; with IFNα, above 50000 nM.

As to `CCCC[C@](C)(CNC(C)=O)Nc1nc(N)nc2nccnc12` [Example 14, (R)—N-(2-((2-aminopteridin-4-yl)amino)-2-methylhexyl)acetamide], the AC50 is 1900 nM with IL12p40, 1910 nM in the assay on TNFα and above 50000 nM with IFNα.
